Reference: patent US7741360B2, “Bi-aryl or aryl-heteroaryl substituted indoles” (AstraZeneca AB, priority 2006, dated 2010)

Target: T1, rhCRTh2 (Homo sapiens, UniProt Q9Y5Y4)
T1 construct: expressed in transfected cells; host or cells: HEK cells (membrane preparation)
T1 sequence (Q9Y5Y4 1-395): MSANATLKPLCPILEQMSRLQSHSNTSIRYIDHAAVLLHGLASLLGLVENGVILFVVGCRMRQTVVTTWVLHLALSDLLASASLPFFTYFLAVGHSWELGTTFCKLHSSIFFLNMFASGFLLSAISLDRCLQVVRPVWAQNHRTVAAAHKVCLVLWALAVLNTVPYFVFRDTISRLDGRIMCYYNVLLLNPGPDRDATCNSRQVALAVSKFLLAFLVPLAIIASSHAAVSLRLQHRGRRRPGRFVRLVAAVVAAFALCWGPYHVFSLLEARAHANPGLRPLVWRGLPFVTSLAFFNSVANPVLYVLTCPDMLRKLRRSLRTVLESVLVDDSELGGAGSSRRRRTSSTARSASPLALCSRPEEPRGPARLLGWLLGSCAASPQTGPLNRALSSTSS
Assay: Ligand binding assay, [3H]PGD2 SPA on HEK cell membranes
Settings: [3H]PGD2 displacement, membranes of HEK cells expressing rhCRTh2/Gα16, SPA beads, RT 2 hours
Description: [^3H]PGD2 was purchased from Perkin Elmer Life Sciences with a specific activity of 100-210 Ci/mmol. All other chemicals were of analytical grade.
HEK cells expressing rhCRTh2/Gα16 were routinely maintained in DMEM containing 10% Foetal Bovine Serum (HyClone), 1 mg/ml geneticin, 2 mM L-glutamine and 1% non-essential amino acids. For the preparation of membranes, the adherent transfected HEKcells were grown to confluence in two layer tissue culture factories (Fisher, catalogue number TKT-170-070E). Maximal levels of receptor expression were induced by addition of […] sodium butyrate for the last 18 hours of culture. […] The final pellet was re-suspended in 4 ml of membrane homogenisation buffer per cell factory used and the protein content determined. […]
All assays were performed in Corning clear bottomed, white 96-well NBS plates (Fisher). […] (The optimum coating concentrations were determined for each batch of membranes) The beads were pelleted by centrifugation (800×g for 7 minutes at 4° C.), washed once with assay buffer (50 mM HEPES pH 7.4 containing 5 mM magnesium chloride) and finally re-suspended in assay buffer at a bead concentration of 10 mg/ml. […]

IC50: 20 nM
Structure (SMILES): Cc1c(Sc2ccc(-c3ccccc3)cc2)c2cc(F)ccc2n1CC(=O)O [Example 1, [3-(Biphenyl-4-ylsulfanyl)-5-fluoro-2-methyl-indol-1-yl]-acetic acid]
